How the values were obtained:
Format in all cases: in vivo, Drosophila melanogaster
[1] = tested on: Sxl^pe-tTA, tRE-Ras64B^V12 on the third chromosome; experiment: Recombinant chromosome experiments: parents raised on supplement, progeny on normal food, adults by sex (25, 18 or 29° C.); conditions: 25° C.
Description: (§1) 40-45 young females and 20-25 young males raised at 25° C. upon food with the indicated tetracycline supplement were allowed to mate, then transferred to normal (tetracycline-free) food after 3-4 days. These flies were transferred to fresh vials of normal food every day for 12 days, then removed on the 13th day. All the vials were incubated at 25° C. while the progeny developed. The numbers of male and female progeny emerging as adults in each vial were recorded.
(§2) A standard range of additive concentrations were used in the following experiments (0.05-20 μg/ml). […] (=“not done”)
(§3) All the preceding experiments were performed at 25° C., the standard temperature for Drosophila culture. However, the insects in the wild would clearly be exposed to varying temperatures, so we investigated the extent to which the efficiency of the system is affected by temperature. As with the recombinant chromosome experiments, 40-45 young virgin females and 20-25 young males raised at 25° C. upon food with the indicated tetracycline supplement were allowed to mate, then transferred to normal (tetracycline-free) food after 3-4 days. These flies were transferred to fresh vials of normal food every day. The numbers of male and female progeny emerging as adults in each vial were recorded. These experiments were performed at either 18° C. or 29° C.

[2] = tested on: Sxl^pe-tTA, tRE-Msl-2^Nopu on the X chromosome; experiment: as above; conditions: 25° C.
Description: as §1, §2, §3

[3] = tested on: Sxl^pe-tTA, tRE-Msl-2^Nopu on the third chromosome; experiment: as above; conditions: 25° C.
Description: as §1, §2, §3

[4] = tested on: Sxlp^e tTa, tRe Msl-1^Mpu on the X chromosome; experiment: as above; conditions: 25° C.
Description: as §1, §2, §3

[5] = tested on: Hsp26 tTa, tRe Msl-2^Nopu on the 2nd chromosome; experiment: as above; conditions: 25° C.
Description: as §1, §2, §3

[6] = tested on: Hsp26 tTa, tRe Msl-1^Mpu on the 2nd chromosome; experiment: as above; conditions: 25° C.
Description: as §1, §2, §3

[7] = tested on: Sxl^pe-tTA, tRE-Ras64B^V12 on the X chromosome; experiment: as above
Description: as §1, §2, §3

[8] = tested on: Recombinant chromosome stocks; experiment: Maintenance of stocks on non-antibiotic tetracycline analogues
Description: Recombinant chromosome stocks can readily be maintained at 25° C. on epioxytetracycline concentrations of 1 μg/ml or anhydrotetracycline concentrations of 0.1 μg/ml, showing that these non-antibiotic tetracycline analogues are effective in repressing tTA responsive gene expression.
as §2

[9] = tested on: Yp3 tTa, tRe Ras64B^V12 on the 2nd chromosome; experiment: Recombinant chromosome experiments / maternal transmission of Tc (Table 1): parents raised on supplement, progeny on normal food, adults by sex; conditions: 25° C.
Description: as §1, §2, §3
We used a strain of Drosophila in which females, but not males, require Tc for viability.
A strain homozygous for second chromosome insertions of both Yp3-tTA and tRe-Ras64B^V12 was tested for the effect of parental dietary Tc. 40-45 young females and 20-25 young males raised at 25° C. upon food with the indicated tetracycline supplement were allowed to mate, then transferred to normal (tetracycline-free) food after 3-4 days. These flies were transferred to fresh vials of normal food every day for 12 days, and then removed on the 13th day. All the vials were incubated at 25° C. while the progeny developed. The total numbers of male and female progeny emerging as adults were recorded.

[10] = tested on: Yp3 tTa, tRe Msl-1^Mpu on the 2nd chromosome; experiment: Recombinant chromosome experiments: parents raised on supplement, progeny on normal food, adults by sex (25, 18 or 29° C.); conditions: 25° C.
Description: as §1
Since there is no meiotic recombination in Drosophila melanogaster males, any of these recombinant chromosomes could be used in a genetic sexing or insect control program, if required.
as §2, §3

[11] = parents raised on epioxytetracycline 1 μg/ml
[12] = parents raised on epioxytetracycline 5 μg/ml
[13] = parents raised on epioxytetracycline 20 μg/ml
[14] = Epioxytetracycline Conc. 1 μg/ml
[15] = Epioxytetracycline Conc. 5 μg/ml
[16] = Epioxytetracycline Conc. 20 μg/ml

SMILES: CN(C)[C@H]1C(O)=C(C(N)=O)C(=O)[C@@]2(O)C(O)=C3C(=O)c4c(O)cccc4[C@@](C)(O)[C@H]3[C@H](O)[C@@H]12 [epioxytetracycline]
- Female progeny emerging as adults [1, 11]: 0
- Male progeny emerging as adults [1, 11]: 1165
- Female progeny emerging as adults [1, 12]: 0
- Male progeny emerging as adults [1, 12]: 1279
- Female progeny emerging as adults [1, 13]: 0
- Male progeny emerging as adults [1, 13]: 1257
- Female progeny emerging as adults [2, 11]: 0
- Male progeny emerging as adults [2, 11]: 1076
- Female progeny emerging as adults [2, 12]: 0
- Male progeny emerging as adults [2, 12]: 1119
- Female progeny emerging as adults [2, 13]: 0
- Male progeny emerging as adults [2, 13]: 1159
- Female progeny emerging as adults [3, 11]: 0
- Male progeny emerging as adults [3, 11]: 1250
- Female progeny emerging as adults [3, 12]: 0
- Male progeny emerging as adults [3, 12]: 1300
- Female progeny emerging as adults [3, 13]: 0
- Male progeny emerging as adults [3, 13]: 1364
- Female progeny emerging as adults [4, 11]: 0
- Male progeny emerging as adults [4, 11]: 1483
- Female progeny emerging as adults [4, 12]: 0
- Male progeny emerging as adults [4, 12]: 1585
- Female progeny emerging as adults [4, 13]: 0
- Male progeny emerging as adults [4, 13]: 1565
- Female progeny emerging as adults [5, 11]: 0
- Male progeny emerging as adults [5, 11]: 1362
- Female progeny emerging as adults [5, 12]: 0
- Male progeny emerging as adults [5, 12]: 1181
- Female progeny emerging as adults [5, 13]: 0
- Male progeny emerging as adults [5, 13]: 1403
- Female progeny emerging as adults [6, 11]: 0
- Male progeny emerging as adults [6, 11]: 1243
- Female progeny emerging as adults [6, 12]: 0
- Male progeny emerging as adults [6, 12]: 1409
- Female progeny emerging as adults [6, 13]: 0
- Male progeny emerging as adults [6, 13]: 1373
- Female progeny [7, 14]: 0
- Male progeny [7, 14]: 1306
- Female progeny [7, 15]: 0
- Male progeny [7, 15]: 1581
- Female progeny [7, 16]: 0
- Male progeny [7, 16]: 1495
- concentration on which recombinant chromosome stocks can readily be maintained ([8]; 25° C.): 1 µg/mL
- repressing tTA responsive gene expression ([8]; 25° C.): effective
- concentration required to repress gene expression, compared with tetracycline ([8]; in vivo): slightly higher concentrations are required
- stock maintenance at the two lowest concentrations ([8]; standard range of additive concentrations 0.05-20 μg/ml): unable to maintain stock
- Female progeny emerging as adults [9, 11]: 0
- Male progeny emerging as adults [9, 11]: 1431
- Female progeny emerging as adults [9, 12]: 0
- Male progeny emerging as adults [9, 12]: 1424
- Female progeny emerging as adults [9, 13]: 0
- Male progeny emerging as adults [9, 13]: 1387
- Female progeny emerging as adults [10, 11]: 0
- Male progeny emerging as adults [10, 11]: 1350
- Female progeny emerging as adults [10, 12]: 0
- Male progeny emerging as adults [10, 12]: 1308
- Female progeny emerging as adults [10, 13]: 0
- Male progeny emerging as adults [10, 13]: 1343
